From patent US20100288276A1, “COMPOSITIONS FOR TREATING PARKINSON'S DISEASE” (VECTURAL LIMITED, priority 2007, published 2010)
Structures can show the parent of a compound that is named as a salt. Where two headings read alike, the source gives them in different places. Values belong to the molecule of their own block, whether it stands above or below them.

Key:
[1] = Pharmacokinetics after pulmonary inhalation of apomorphine; assay type: in vivo, patients; conditions: for AUC(0-t) / AUC(0-inf) / Cmax / Tmax: human, plasma, inhaled or intranasal; for AUC(0-t): read-out: AUC(0-t), Mean (SD) (converted); for AUC(0-inf): read-out: AUC(0-∞), Mean (SD) (converted); for Cmax: read-out: Cmax, Mean (SD)
[2] = test system: Parkinson's Disease patients; assay: Therapeutic effect (conversion from off to on state) after pulmonary inhalation, clinical trial; assay type: in vivo
[3] = Safety results: treatment emergent adverse events after inhaled apomorphine; assay type: in vivo, patients; conditions: Nominal Doses of 400 μg, 1000 μg and 1600 μg
Description: Safety results: Few patients experienced treatment emergent adverse events (TEAEs) and there were no notable differences in incidence or types of TEAEs among the treatment groups. […] Most common TEAEs at <24 h post dose were nervous system disorders.

[4] = Visual assessment of pMDI suspension formulations; assay type: physicochemical
Description: Nine formulations (see Table 1 and Table 2) were manufactured.
Reduction of the drug concentration (300 μg/50 μl) was investigated in Formulations 4-6 (see FIGS. 5-8).

[5] = nasal administration; cited from earlier work
[6] = test system: Parkinson's Disease patients; conditions: injected under the skin; cited from earlier work
[7] = Solubility in pMDI propellant formulations; assay type: physicochemical; conditions: within ethanol-based HFA 134a pMDI formulations
Description: Previously a low dose (<25 μg/50 μl) HFA134a/HFA 227 solution formulation has been produced but only at high ethanol contents (50% w/w).

[8] = 1000 μg inhaled, N = 6, 30% apomorphine in 70% lactose blend

k, Mean (SD) ([1]; 400 μg inhaled, N = 6, 20% apomorphine in 80% lactose blend): 0.01 (0.00)
tmax, Mean (SD) ([1]; 400 μg inhaled, N = 6, 20% apomorphine in 80% lactose blend, in min): 1.0 (0.0)
AUC(0-∞), Mean (SD) [1, 8]: 216.93 (99.30) ng · min/mL
k, Mean (SD) [1, 8]: 0.01 (0.00)
k, Mean (SD) ([1]; 1600 μg inhaled, N = 6, 30% apomorphine in 70% lactose blend): 0.02 (0.00)
AUC(0-t) ([1]; 400 ug): 0.792 ng·h/mL
AUC(0-inf) ([1]; 400 ug): 0.945 ng·h/mL
Cmax ([1]; 400 ug): 3.03 ng/mL
Tmax ([1]; 1000 ug, 1000 μg inhaled, N = 6, 30% apomorphine in 70% lactose blend, read-out: tmax, Mean (SD) (converted)): 2.6 min
AUC(0-t) ([1]; 1000 ug): 2.81 ng·h/mL
Cmax ([1]; 1000 ug): 10 ng/mL
Tmax ([1]; 1600 ug, 1600 μg inhaled, N = 6, 30% apomorphine in 70% lactose blend, read-out: tmax, Mean (SD) (converted)): 2.2 min
AUC(0-t) ([1]; 1600 ug): 4.51 ng·h/mL
AUC(0-inf) ([1]; 1600 ug): 5.03 ng·h/mL
Cmax ([1]; 1600 ug): 11.9 ng/mL
Tmax ([1]; Tmax / time of peak apomorphine plasma concentration, pulmonary inhalation): 1 to 3 min
dose proportionality of AUC(0-t), AUC(0-∞) and Cmax ([1]; pulmonary inhalation, 400-1600 μg): Dose proportionality was observed
suspension behaviour (visual assessment) ([4]; 264 μg/50 μl suspension in HFA 227): cream (float)
suspension behaviour (visual assessment) ([4]; 300 μg/50 μl in pure HFA134a): rapidly sediment
suspension behaviour (visual assessment) ([4]; 600 μg/50 μl in pure HFA134a): rapidly sedimented
density ([4]; density matched at approximately 60% w/w HFA 227 and 40% w/w HFA134a): about 1.33 g/ml
SMILES: CN1CCc2cccc3c2[C@H]1Cc1ccc(O)c(O)c1-3 [Apomorphine, apomorphine]
mean duration of the therapeutic effect ([2]; clinical trial, pulmonary inhalation): 75 min
onset of the therapeutic effect (conversion) ([2]; majority of patients, after inhaling apomorphine): ≤ 10 min
conversion from the off to the on state ([2]; some patients, as quickly as, pulmonary inhalation): 2 min
tolerability [3]: well tolerated
Tmax [5]: approximately 15 minutes
period for which the effect is maintained [6]: about 60 minutes
time to bring about an on time [6]: 7 to 10 min

solubility [7]: low solubility
SMILES: CN1CCc2cccc3c2[C@H]1Cc1ccc(O)c(O)c1-3 [apomorphine hydrochloride]
